# Experimental data reported in the supplement of paper PMC10331698.
# ± gives the standard deviation of the averaged measurements.
# Assays:
# Experiment in all cases: level (log10 ratio to DMSO vehicle control); higher = higher biomarker level / cell amount than vehicle control
# [1] = compound: OCC(F)(F)C(F)(F)C(F)(F)C(F)(F)C(F)(F)C(F)(F)C(F)(F)C(F)(F)CO [1H,1H,10H,10H-Perfluorodecane-1,10-diol]; details: in DMSO
# Protocol: (§1)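 BioMAP Diversity Plus panel of 12 human primary cell co-culture systems (3C, 4H, LPS, SAg, BT, BF4T, BE3C, CASM3C, HDF3CGF, KF3CT, MyoF, Mphg). Compounds were added 1 h before stimulation and left for 24 h (MyoF 48 h; BT 72 h for soluble read-outs or 6 d for IgG). Biomarkers were read by ELISA, cytotoxicity by SRB, PBMC viability and proliferation by Alamar Blue. Each well value was divided by the mean of 8 DMSO control wells on the same plate and log10 transformed; duplicate blinded samples were tested at 4 concentrations.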
# [2] = compound: C=CC(=O)OCC(F)(F)C(F)(F)C(F)(F)C(F)(F)C(F)(F)C(F)(F)C(F)(F)C(F)F [1H,1H,9H-Perfluorononyl acrylate]; details: in DMSO
# Protocol: as §1
# [3] = compound: OC(C(F)(F)F)(C(F)(F)F)C(O)(C(F)(F)F)C(F)(F)F [Perfluoropinacol]; details: in DMSO
# Protocol: as §1
# [4] = compound: O=S(=O)(O)CCC(F)(F)C(F)(F)C(F)(F)C(F)(F)F [4:2 Fluorotelomer sulfonic acid]; details: in DMSO
# Protocol: as §1
# [5] = compound: OCCC(F)(F)C(F)(F)C(F)(F)C(F)(F)C(F)(F)C(F)(F)C(F)(F)C(F)(F)F [8:2 Fluorotelomer alcohol]; details: 6700 nM; in DMSO
# Protocol: as §1
# [6] = compound: O=C(O)C(F)(F)C(F)(F)C(=O)O [Tetrafluorosuccinic acid]; details: in DMSO
# Protocol: as §1
# [7] = compound: O=C(O)C(F)(F)C(F)(F)C(F)(F)C(F)(F)C(F)(F)C(F)(F)C(F)(F)F [Ammonium perfluorooctanoate]; details: in DMSO
# Protocol: as §1
Test System,level (log10) ([1]; 6700 nM),level (log10) ([1]; 20000 nM),level (log10) ([1]; 60000 nM),level (log10) ([2]; 6700 nM),level (log10) ([2]; 20000 nM),level (log10) ([2]; 60000 nM),level (log10) ([3]; 6700 nM),level (log10) ([3]; 20000 nM),level (log10) ([4]; 6700 nM),level (log10) ([4]; 20000 nM),level (log10) ([4]; 60000 nM),level (log10) [5],level (log10) ([6]; 6700 nM),level (log10) ([6]; 20000 nM),level (log10) ([6]; 60000 nM),level (log10) ([7]; 6700 nM),level (log10) ([7]; 20000 nM),level (log10) ([7]; 60000 nM)
BF4T:MMP-3,0.0015 ± 0.021,-0.0375 ± 0.026,-0.105,0.013 ± 0.013,-0.003 ± 0.045,0.021 ± 0.0085,-0.013 ± 0.04,-0.008 ± 0.0057,-0.031 ± 0.013,-0.0235 ± 0.018,0.0295 ± 0.069,-0.001 ± 0.0014,0.0285 ± 0.012,-0.008 ± 0.028,0.012 ± 0.0057,0.003 ± 0.0014,0.0165 ± 0.011,0.084 ± 0.02
BT:sTNF-alpha,-0.017 ± 0.085,-0.007 ± 0.031,-0.762,-0.111 ± 0.039,-0.281 ± 0.065,-0.827 ± 0.71,0.0425 ± 0.061,-0.146 ± 0.015,0.0815 ± 0.16,-0.063 ± 0.021,0.0095 ± 0.012,0.093 ± 0.034,-0.0875 ± 0.14,-0.076 ± 0.13,-0.0795 ± 0.054,-0.033 ± 0.038,-0.0095 ± 0.12,0.001 ± 0.13
4H:CCL26/Eotaxin-3,-0.005 ± 0.037,-0.0125 ± 0.035,-0.179,-0.0045 ± 0.0035,-0.016 ± 0.031,-0.052 ± 0.024,-0.03 ± 0.048,-0.179 ± 0.037,-0.084 ± 0.042,-0.004 ± 0.037,0.0225 ± 0.037,0.017 ± 0.054,0.0025 ± 0.049,-0.037 ± 0.064,0.0315 ± 0.018,-0.005 ± 0.0028,-0.013 ± 0.0057,-0.0385 ± 0.028
LPS:M-CSF,-0.018 ± 0.024,-0.013,0.011,0.0015 ± 0.032,-0.0025 ± 0.0092,-0.0265 ± 0.057,0.0135 ± 0.015,-0.1085 ± 0.00071,-0.0265 ± 0.049,0.017 ± 0.0071,0.0025 ± 0.005,-0.06 ± 0.13,-0.0255 ± 0.0078,-0.018 ± 0.014,0.0335 ± 0.047,0.0145 ± 0.023,0.005 ± 0.031,0.007 ± 0.018
3C:CD87/uPAR,-0.063 ± 0.064,-0.051 ± 0.075,-0.165,0.012 ± 0.04,0.016 ± 0.013,0.017 ± 0.0099,-0.159 ± 0.04,-0.29 ± 0.022,-0.05 ± 0.047,-0.017 ± 0.069,0.002 ± 0.058,0.008 ± 0.018,-0.022 ± 0.024,-0.0085 ± 0.0078,-0.019 ± 0.033,-0.007 ± 0.0042,-0.0095 ± 0.013,-0.056 ± 0.011
BF4T:uPA,-0.014 ± 0.017,-0.029 ± 0.0042,-0.06,-0.0055 ± 0.023,-0.0075 ± 0.018,-0.002 ± 0.018,-0.0305 ± 0.019,-0.0365 ± 0.0064,-0.013 ± 0.02,-0.013 ± 0.0085,0.0105 ± 0.0078,-0.047 ± 0.0057,-0.004 ± 0.0014,-0.0185 ± 0.0064,-0.0095 ± 0.0092,0.014 ± 0.0028,0.0175 ± 0.0021,0.042 ± 0.013
4H:VEGFR2,-0.0455 ± 0.07,-0.0125 ± 0.0092,0.055,-0.018 ± 0.014,-0.009 ± 0.057,0.0045 ± 0.03,-0.02 ± 0.023,-0.138 ± 0.064,-0.103 ± 0.042,-0.0525 ± 0.071,0.025 ± 0.075,0.0185 ± 0.0064,-0.032 ± 0.014,-0.027,0.007 ± 0.11,-0.0055 ± 0.0035,-0.009 ± 0.0014,-0.0455 ± 0.098
SAg:CXCL8/IL-8,-0.0125 ± 0.037,-0.01 ± 0.018,-0.051,-0.068 ± 0.0028,-0.0845 ± 0.026,-0.0975 ± 0.14,0.0725 ± 0.029,-0.139 ± 0.041,-0.048 ± 0.093,-0.007 ± 0.052,0.034 ± 0.042,-0.0115 ± 0.047,-0.0345 ± 0.039,-0.044 ± 0.021,-0.006 ± 0.064,-0.0325 ± 0.026,0.007 ± 0.013,0.127 ± 0.16
